According to patent US20240331158A1, “CELL PAINTING AND ANALYSIS IN 3D CELLULAR MODELS” (priority 2023, published 2024):
pEC50: −log10 of the molar value. Counter-ions that a name gives are not always drawn. Like-named read-outs stand apart in the source and are kept apart here. *1 amine or outer side, *2 acyl side, *3 side chain or, on linkers, in order; H or OH if unused. Where a SMILES comes first, the peptide text is derived from it. Bridges are numbered along the chain shown (N, C = ends). Roman numbers before positions name the chains, in order. [ ]: non-standard residue; d: D form. Actinocin(9to1) = Cc1c2oc3c(C)ccc(C(=O)[*:1])c3nc-2c(C(=O)[*:2])c(N)c1=O; NMeV = CN[C@H](C(=O)O)C(C)C; Sar = CNCC(=O)O

Assays:
TU-BcX-4IC tumoroids [1] = test: Library screening of NCI approved anti-cancer drugs: tumoroid integrity/disintegration by nuclear count in projection images (viability/spheroid disintegration assay); settings: for minimal effective concentration: Homo sapiens, TU-BcX-4IC, 120 h; for Viability HIT?: also hit in viability/spheroid disintegration assay, 10 μM
Procedure: In addition, positive and negative controls were included in the test plates.
During incubation with compounds, tumoroids were monitored daily using TL imaging. Image analysis allowed characterization of tumoroid size, diameter, compactness, and integrity, as well as optical density (FIG. 2B, FIG. 7). Images of tumoroids were taken prior to compound treatment, and during day 3 and day 5 of compound treatment. For the end point assay, tumoroids were stained with viability and nuclear dyes on day 5 of compound treatment. Cells were stained with a combination of Hoechst, calcein AM, and Ethidium Homodimer III (EthD-III) and analyzed using high content imaging for complex phenotypic analysis; a subset of plates was set aside for additional assays including Cell Painting.
Images of organoids were taken with a 10× objective using Z-stack with a step size of 8 mm. Nuclei, live cells, and dead cells of stained cells were detected using DAPI, FITC, and TexasRed channels respectively. Maximum projection images were created from Z-stacks and analyzed as described in Methods. Multiple read-outs were generated characterizing spheroid area, diameter, intensities, and cell viability. In addition, cells inside each spheroid were counted using a nuclear stain. […] Suspended cells were plated into U-shape 384 well plates using a Biomek i7 automated liquid handler, incubated for 48 hours, and then treated with compounds, stained, and imaged. The protocols for compound additions, media, and staining included gentle media dispensing processes. Consecutively, tumoroids were cultured and monitored by automated imaging. Additionally, use of a collaborative robot enabled moving plates from the incubator to the imaging system, where transmitted light imaging or fluorescent imaging protocols were initiated.
For screening the compound library, maximum projection images may be employed. Spheroid disintegration is visible as an increase of spheroid size, in contrast to nicely shaped, round images of intact spheroids. Tumoroid disintegration can be described by several measurements: for example, increase in organoid area/diameter. Most accurate measurements may be done by counting cells or nuclei inside organoids using maximum projection images. […] Disintegrated tumoroids are made up of cells which are not held together in a tight aggregate but instead are loosely piled up in the well bottom resulting in 1) an increased projected area and 2) an increase in nuclear count in the projection images.
Simple nuclei count analysis in projection images was used as a reliable surrogate marker for organoid integrity/dis-integration.

TU-BcX-4IC tumoroids [2] = test: Cell Painting assay adapted for 3D tumoroids, phenotypic distance score and cluster analysis; settings: 10 μM, phenotypic distance relative to DMSO controls
Procedure: For phenotypic profiling, the tumoroids were treated with a single 10 μM concentration of compound, using the methods described above. Notable changes in the staining protocol included increased times for dye incubation, fixation, and permeabilization. […] Images were acquired with Z-stacks using 20× magnification, and the analysis was carried out on projection (maximum) images.
Unlike the previous analysis that included cell count or live-dead evaluation, multiple read-outs may be collected from the whole spheroid to form their phenotypic profile. […] Instead, the spheroid images may also acquired in transmitted light (bright field), and these images may be used to identify the spheroid structures using a deep learning-based image segmentation approach which may improve the analysis. Features extracted from each spheroid may include object morphologies, intensities, and texture measurements for, e.g., the six cell stains and bright field images.
To determine hits from the assay, a phenotypic distance score may be calculated based on the PCA (principal component analysis) components.
This score is a measure of the phenotypic effect of the compounds on the tumoroids relative to the controls. All hits may then be clustered based on their phenotypic profiles using the normalized principal component scores.
To image the organoids labeled with the cell painting dyes, the ImageXpress Confocal HT.ai system, equipped with a laser light source, was used for image acquisition. The confocal mode (pinhole size 60 μm) was used to image organoids with a 20× Plan Apo Lambda, NA 0.75 objective, with z-stacking enabled (5p m step size). The maximum projection image was selected in the acquisition setup.
Images were analyzed using MetaXpress Software (Molecular Devices). […] For the Cell Painting analysis, image analysis was done in the IN Carta image analysis software. To segment the organoids, a deep learning-based model was created based on the TL channel to segment individual organoids. Following segmentation, measurements that include intensity, shape, area, and texture were extracted from all 6 fluorescent channels. In total, 210 analytical features were obtained from each organoid.
The plate was first incubated with MitoTracker DeepRed (500 nM) for 2 hours. The samples were fixed with 4% paraformaldehyde (PFA) in HBSS for 60 minutes. All wash steps were carried out by exchanging half the volume in each well with HBSS to minimize displacement of the organoids from the center of the well.
Measurements from IN Carta were exported as a CSV file and uploaded into StratoMineR (Core Life Analytica), a web-based data analytics platform for hit picking and phenotypic clustering.

TU-BcX-4IC 3D cultures [3] = test: Imaging read-out, 3D culture; settings: Homo sapiens, 120 h, read-out: EC50, Imaging 3D
Procedure: (§1) Cell metabolism may be measured by ATP level as another readout for effects of anti-cancer drugs that is related to cytotoxicity. In the present examples, a subset of 12 compounds were used for evaluation of compound effects, using the CellTiter-Glo 3D assay (Promega), which detects ATP levels. Compounds may be tested using 7 point 5× dilutions starting from 100 uM. In the present examples, compound effects on 2D culture and 3D cultures were compared, using imaging and CellTiter-Glo 3D methods. Cultures were set up in parallel, using same cell number (2000). Cultures were allowed to grow for 48 hours, then treated with compounds for 5 days.
(§2) Images were analyzed using MetaXpress Software (Molecular Devices). Count Nuclei or Cell Scoring application modules were used for nuclear count live/dead assessment, or evaluation of cell number positive for specific markers. Output measurements included spheroid width, spheroid area, average intensity for calcein AM or EthD-III, counts of all nuclei, and evaluation of average nuclear size and average intensities. In addition, calcein AM-positive cells were counted, and their area and intensity values were recorded. In addition to cell count, areas and intensities could be determined for live (EthD-III negative) and dead (EthD-III positive) cells.

TU-BcX-4IC 2D culture [4] = test: Imaging read-out, 2D culture; settings: Homo sapiens, 120 h, read-out: EC50, Imaging 2D
Procedure: as §1, §2

TU-BcX-4IC 3D cultures [5] = test: CellTiter-Glo 3D ATP assay, 3D culture; settings: Homo sapiens, TU-BcX-4IC, 120 h, read-out: EC50, ATP 3D
Procedure: (§3) Cell metabolism may be measured by ATP level as another readout for effects of anti-cancer drugs that is related to cytotoxicity. […] Compounds may be tested using 7 point 5× dilutions starting from 100 uM. In the present examples, compound effects on 2D culture and 3D cultures were compared, using imaging and CellTiter-Glo 3D methods. Cultures were set up in parallel, using same cell number (2000). Cultures were allowed to grow for 48 hours, then treated with compounds for 5 days.

TU-BcX-4IC 2D culture [6] = test: CellTiter-Glo 3D ATP assay, 2D culture; settings: Homo sapiens, TU-BcX-4IC, 120 h, read-out: EC50, ATP 2D
Procedure: as §3

TU-BcX-4IC tumoroids [7] = test: Secondary follow-up 3D assay, 7-point concentration curves, tumoroid disintegration measurement; format: cell-based, human; settings: 3D assay, 7-point concentration curves, 5 days, nuclear count in projection images; for pEC50: Homo sapiens, TU-BcX-4IC, 120 h, read-out: EC50
Procedure: 10 compounds, including panobinostat, carfilzomib, and bortezomib were tested across 7 concentrations in the 1-10000 nM range. Spheroids were treated for 5 days with these compounds, then stained as described above (FIG. 4). […] EC50 values (Table 2) were determined using tumoroid disintegration measurement (nuclear count in projection images).
Automated staining of spheroids was performed for one hour. After staining, dye solution was replaced with 1×PBS.

[8] = read-out: Effective concentration, 3D tumoroids, 5 days treatment, tumoroid integrity by nuclear count, tested at 10 nM to 100 uM

| Molecule | minimal effective concentration (TU-BcX-4IC tumoroids [1]; [8]) [µM] | Distance Score (TU-BcX-4IC tumoroids [2]) | Viability HIT? (TU-BcX-4IC tumoroids [1]) | further results |
| --- | --- | --- | --- | --- |
| COc1cc(Nc2c(C#N)cnc3cc(OCCCN4CCN(C)CC4)c(OC)cc23)c(Cl)cc1Cl [Bosutinib] | 0.1 | – | – | – |
| CO[C@@]12[C@H](COC(N)=O)C3=C(C(=O)C(C)=C(N)C3=O)N1C[C@@H]1N[C@@H]12 [Mitomycin] | 1 | – | – | – |
| O=C(/C=C\n1cnc(-c2cc(C(F)(F)F)cc(C(F)(F)F)c2)n1)NNc1cnccn1 [Selinexor] | – | 5.004 | no | – |
| C=CC(=O)N1CCC[C@@H](n2nc(-c3ccc(Oc4ccccc4)cc3)c3c(N)ncnc32)C1 [Ibrutinib] | – | – | – | pEC50 (TU-BcX-4IC 3D cultures [3]): ~4.70; pEC50 (TU-BcX-4IC 2D culture [4]): 4.69; pEC50 (TU-BcX-4IC 3D cultures [5]): 4.80; pEC50 (TU-BcX-4IC 2D culture [6]): 4.60 |
| CNC(=O)c1cc(Oc2ccc(NC(=O)Nc3ccc(Cl)c(C(F)(F)F)c3)c(F)c2)ccn1 [Regorafenib] | 0.1 | – | – | – |
| Cc1ccc(-c2cc(C(F)(F)F)nn2-c2ccc(S(N)(=O)=O)cc2)cc1 [Celecoxib] | – | – | – | EC50 (TU-BcX-4IC tumoroids [7]): no effect |
| CC(=O)O[C@H]1C(=O)[C@@]2(C)[C@H]([C@H](OC(=O)c3ccccc3)[C@]3(O)C[C@H](OC(=O)[C@H](O)[C@@H](NC(=O)c4ccccc4)c4ccccc4)C(C)=C1C3(C)C)[C@]1(OC(C)=O)CO[C@@H]1C[C@@H]2O [Paclitaxel] | 1 | – | – | pEC50 (TU-BcX-4IC tumoroids [7]): 5.54 |
| CC(C)C[C@H](NC(=O)CNC(=O)c1cc(Cl)ccc1Cl)B1OC(=O)C(CC(=O)O)(CC(=O)O)O1 [Ixazomib citrate] | 0.1 | – | – | – |
| CC(C)C[C@H](NC(=O)[C@H](CCc1ccccc1)NC(=O)CN1CCOCC1)C(=O)N[C@@H](Cc1ccccc1)C(=O)N[C@@H](CC(C)C)C(=O)[C@@]1(C)CO1 [Carfilzomib] | – | 5.007 | no | pEC50 (TU-BcX-4IC 3D cultures [3]): 7.14; pEC50 (TU-BcX-4IC 2D culture [4]): 5.98; pEC50 (TU-BcX-4IC 3D cultures [5]): 5.24; pEC50 (TU-BcX-4IC 2D culture [6]): 5.98 |
| C[C@]12CC[C@@H]3c4ccc(O)cc4C[C@@H](CCCCCCCCC[S+]([O-])CCCC(F)(F)C(F)(F)F)[C@H]3[C@@H]1CC[C@@H]2O (stereo partly shown) [Fulvestrant] | 0.01 | – | – | – |
| Cc1nc(Nc2ncc(C(=O)Nc3c(C)cccc3Cl)s2)cc(N2CCN(CCO)CC2)n1 [Dasatinib] | 0.1 | – | – | – |
| Cn1cc(-c2cc3c(N4CCN(c5ncc([C@@](C)(N)c6ccc(F)cc6)cn5)CC4)ncnn3c2)cn1 [Avapritinib] | – | 5.386 | no | – |
| Cc1ccc(C(=O)Nc2ccc(CN3CCN(C)CC3)c(C(F)(F)F)c2)cc1C#Cc1cnc2cccnn12 [Ponatinib] | – | – | – | minimal effective concentration (TU-BcX-4IC tumoroids [1]; read-out: Effective concentration): 0.1 µM |
| CN1CCN(c2ccc(C(=O)Nc3n[nH]c4ccc(Cc5cc(F)cc(F)c5)cc34)c(NC3CCOCC3)c2)CC1 [Entrectinib] | – | 4.843 | yes | – |
| CC[C@]1(O)C[C@@H]2CN(CCc3c([nH]c4ccccc34)[C@@](C(=O)OC)(c3cc4c(cc3OC)N(C)[C@H]3[C@@](O)(C(=O)OC)[C@H](OC(C)=O)[C@]5(CC)C=CCN6CC[C@]43[C@@H]65)C2)C1 [Vinblastine sulfate] | 0.1 | – | – | – |
| O=C(/C=C/c1cccc(S(=O)(=O)Nc2ccccc2)c1)NO [Belinostat] | 0.1 | 5.348 | yes | – |
| Dabrafenib mesylate | – | 6.249 | yes | – |
| Cc1c2oc3c(C)ccc(C(=O)N[C@@H]4C(=O)N[C@H](C(C)C)C(=O)N5CCC[C@H]5C(=O)N(C)CC(=O)N(C)[C@@H](C(C)C)C(=O)O[C@@H]4C)c3nc-2c(C(=O)N[C@@H]2C(=O)N[C@H](C(C)C)C(=O)N3CCC[C@H]3C(=O)N(C)CC(=O)N(C)[C@@H](C(C)C)C(=O)O[C@@H]2C)c(N)c1=O [Dactinomycin] (I: T[dV]P[Sar][NMeV] / II: T[dV]P[Sar][NMeV]; ester I:1-I:C, II:1-II:C; linker I:N-II:N via Actinocin(9to1)) | – | – | – | pEC50 (TU-BcX-4IC 3D cultures [3]): 7.48; pEC50 (TU-BcX-4IC 2D culture [4]): > 8.00; pEC50 (TU-BcX-4IC 3D cultures [5]): 8.30; pEC50 (TU-BcX-4IC 2D culture [6]): > 8.00; Efficacy at low concentrations (TU-BcX-4IC tumoroids [1]; library screen, tumoroid integrity by nuclear count): efficacy at low concentrations |
| C[C@@H](Oc1cc(-c2cnn(C3CCNCC3)c2)cnc1N)c1c(Cl)ccc(F)c1Cl [Crizotinib] | – | – | – | pEC50 (TU-BcX-4IC tumoroids [7]): < 6.00 |
| CC(=O)[C@]1(O)Cc2c(O)c3c(c(O)c2[C@@H](O[C@H]2C[C@H](N)[C@H](O)[C@H](C)O2)C1)C(=O)c1ccccc1C3=O [Idarubicin hydrochloride] | 1 | – | – | pEC50 (TU-BcX-4IC 3D cultures [3]): 5.41; pEC50 (TU-BcX-4IC 2D culture [4]): ~6.00; pEC50 (TU-BcX-4IC 3D cultures [5]): 6.84; pEC50 (TU-BcX-4IC 2D culture [6]): 7.17 |
